Test results reported in patent publication US8063069B2, “Prucalopride-N-oxide” (Janssen Pharmaceutica N.V., priority 2002, dated 2011).
Read-outs that look alike come from different tables or passages of the source.

Experiments:
[1] = pharmacokinetics of prucalopride in plasma after single oral administration to beagle dogs; format: in vivo; settings: for Cmax / Tmax: dog, plasma, po, 2.5 mg/kg; for Cmax: read-out: Cmax peak plasma concentration of prucalopride; for Tmax: read-out: Tmax time to reach the peak plasma concentration of prucalopride
Experimental: Two male beagle dogs were dosed orally with 1 ml of a test formulation comprising 2.5 mg/kg of 4-amino-5-chloro-2,3-dihydro-N-[1-(3-methoxypropyl)-4-piperidinyl]-7-benzofuran-carboxamide (“prucalopride”).
After a wash-out period of four weeks, the same two dogs were dosed orally with 1 ml of a test formulation comprising 2.61 mg/kg of compound (1).
Blood samples were taken via the jugular vein immediately before dosing (blank sample) and at 0.25 h, 0.5 h, 1 h, 1.5 h, 2 h, 4 h, 6 h, 8 h, and 24 h after dosing. Aliquots of 10 ml were collected in EDTA tubes. Immediately after collection of the blood samples, plasma samples were prepared by centrifugation at approximately 1700×g for approximately 10 minutes.
Concentrations of prucalopride in the plasma samples were determined by LC/MS/MS. The quantification limit for prucalopride was 5.0 ng/ml.
Based on the individual plasma concentration-time data, using the actual sampling times, the following pharmacokinetic parameters were determined for prucalopride after oral administration of prucalopride and compound (1) and summarized in Table 1. • Cmax peak plasma concentration, determined by visual inspection of the data • Tmax time to reach the peak plasma concentration, determined by visual inspection of the data. • AUC0-∞ area under the plasma concentration-time extrapolated to infinity

[2] = target: 5-HT2A receptors (Homo sapiens, UniProt P28223); settings: in words; cited from earlier work
[3] = target: T1, 5-HT3A receptors (Homo sapiens, UniProt P46098); settings: in words; cited from earlier work
T1 sequence (P46098 24-478): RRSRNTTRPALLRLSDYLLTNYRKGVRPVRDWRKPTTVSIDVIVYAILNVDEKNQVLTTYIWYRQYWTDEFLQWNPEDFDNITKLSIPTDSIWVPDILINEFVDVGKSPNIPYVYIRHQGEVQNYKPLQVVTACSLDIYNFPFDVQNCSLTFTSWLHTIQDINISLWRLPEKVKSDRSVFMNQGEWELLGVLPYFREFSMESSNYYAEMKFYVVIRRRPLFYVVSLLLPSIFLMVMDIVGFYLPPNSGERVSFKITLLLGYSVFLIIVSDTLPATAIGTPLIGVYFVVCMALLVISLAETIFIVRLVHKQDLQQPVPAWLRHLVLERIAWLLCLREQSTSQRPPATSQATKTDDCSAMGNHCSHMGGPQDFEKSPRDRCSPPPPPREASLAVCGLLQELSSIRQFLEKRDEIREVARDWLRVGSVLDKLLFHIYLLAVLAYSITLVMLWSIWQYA

[4] = test system: colon; settings: in words, cited from earlier work
[5] = target: 5-HT4 receptors (Homo sapiens, UniProt Q13639); settings: in words; cited from earlier work
[6] = Dog 1, oral administration of compound (1) 2.61 mg/kg, prucalopride measured in plasma
[7] = Dog 2, oral administration of compound (1) 2.61 mg/kg, prucalopride measured in plasma
[8] = oral administration, dogs, in words
[9] = male, beagle, Dog 1, oral administration of prucalopride 2.5 mg/kg, prucalopride measured in plasma
[10] = male, beagle, Dog 2, oral administration of prucalopride 2.5 mg/kg, prucalopride measured in plasma

Sequence of 5-HT4 receptors (Q13639 whole entry): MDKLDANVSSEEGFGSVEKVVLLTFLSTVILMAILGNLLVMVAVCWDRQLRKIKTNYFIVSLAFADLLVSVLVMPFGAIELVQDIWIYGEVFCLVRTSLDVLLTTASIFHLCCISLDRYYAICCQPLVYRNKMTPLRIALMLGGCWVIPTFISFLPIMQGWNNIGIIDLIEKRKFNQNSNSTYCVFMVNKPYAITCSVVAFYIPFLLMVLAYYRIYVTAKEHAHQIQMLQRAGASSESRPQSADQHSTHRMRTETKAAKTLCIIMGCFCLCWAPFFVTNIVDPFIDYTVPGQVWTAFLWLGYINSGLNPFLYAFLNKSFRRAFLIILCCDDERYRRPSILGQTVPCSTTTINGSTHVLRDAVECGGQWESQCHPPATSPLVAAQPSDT
Sequence of 5-HT2A receptors (P28223 whole entry): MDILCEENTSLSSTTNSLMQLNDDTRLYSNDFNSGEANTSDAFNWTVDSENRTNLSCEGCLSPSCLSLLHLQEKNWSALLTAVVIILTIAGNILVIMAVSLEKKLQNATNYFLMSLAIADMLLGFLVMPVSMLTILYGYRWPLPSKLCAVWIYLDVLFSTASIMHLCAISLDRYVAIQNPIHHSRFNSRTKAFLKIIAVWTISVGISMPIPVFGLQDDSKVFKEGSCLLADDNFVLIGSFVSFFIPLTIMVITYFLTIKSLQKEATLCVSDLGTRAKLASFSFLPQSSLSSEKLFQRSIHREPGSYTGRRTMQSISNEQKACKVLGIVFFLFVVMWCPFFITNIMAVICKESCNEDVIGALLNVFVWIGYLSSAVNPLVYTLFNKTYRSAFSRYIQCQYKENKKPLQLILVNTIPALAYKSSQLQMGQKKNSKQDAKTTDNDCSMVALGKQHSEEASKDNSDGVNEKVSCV

Row | SMILES | AUC0-∞ area under the plasma concentration-time extrapolated to infinity, prucalopride [1, 6] | Cmax peak plasma concentration of prucalopride [1, 6] | Tmax time to reach the peak plasma concentration of prucalopride [1, 6] | AUC0-∞ area under the plasma concentration-time extrapolated to infinity, prucalopride [1, 7] | Cmax peak plasma concentration of prucalopride [1, 7] | Tmax time to reach the peak plasma concentration of prucalopride [1, 7] | peak plasma concentration Cmax of prucalopride, compared with oral prucalopride [1, 8] | systemic exposure to prucalopride, compared with oral prucalopride itself [1, 8] | AUC0-∞ area under the plasma concentration-time extrapolated to infinity, prucalopride ([1]; Dog 2, oral administration of prucalopride 2.5 mg/kg, prucalopride measured in plasma) | Cmax [1, 9] | Tmax [1, 9] | Cmax [1, 10] | Tmax [1, 10] | AUC(0-inf) ([1]; male, beagle, Dog 1, oral administration of prucalopride 2.5 mg/kg, prucalopride measured in plasma, read-out: AUC0-∞ area under the plasma concentration-time extrapolated to infinity, prucalopride) | affinity for 5-HT2A receptors [2] | affinity for 5-HT3A receptors [3] | colonic motility and defecation ([4]; animals) | giant contractions in the colon ([4]; propagated over the length of the colon as a peristaltic wave) | agonism of 5-HT4 receptors [5]
1 | COCCC[N@+]1([O-])CC[C@@H](NC(=O)c2cc(Cl)c(N)c3c2OCC3)CC1.O [compound (1), cis-4-amino-5-chloro-2,3-dihydro-N-[1-(3-methoxypropyl)-4-piperidinyl]-7-benzofurancarboxamide, N-oxide monohydrate] | 2.265 µg·h/mL | 0.222 µg/mL | 2.0 h | 4.093 µg·h/mL | 0.488 µg/mL | 2.0 h | lower | substantially lower | – | – | – | – | – | – | – | – | – | – | –
2 | COCCCN1CCC(NC(=O)c2cc(Cl)c(N)c3c2OCC3)CC1 [prucalopride, 4-amino-5-chloro-2,3-dihydro-N-[1-(3-methoxypropyl)-4-piperidinyl]-7-benzofuran-carboxamide] | – | – | – | – | – | – | – | – | 4.372 µg·h/mL | 0.556 µg/mL | 1 h | 0.66 µg/mL | 0.5 h | 4.23 µg·h/mL | no affinity | no affinity | stimulates colonic motility and defecation | induces giant contractions in the colon | potent and selective agonist
